Patent US7964751B2, “Enantiomers of amino-phenyl-acetic acid octadec-9-(Z) enyl ester, their salts and their uses” (Yeda Research and Development Co. Ltd., priority 2007, dated 2011)
Counter-ions that a name gives are not always drawn. Blank lines part the entries; values can stand above or below the compound they belong to.

Tests used:
[1] = test system: Delayed type hypersensitivity (DTH) skin inflammation in Balb/c mice; assay: Delayed type hypersensitivity (DTH), oxazolone-induced mouse ear swelling test; assay type: in vivo; conditions: for % Inflamation (Diff/Base line * 100) / % Inhibition / Difference mm: 24 hours; for inhibition of inflammation: DTH model
Procedure: Delayed type hypersensitivity (DTH), a localized inflammatory reaction induced by cytokines secreted by certain TH cells when they encounter certain types of antigens, is an established experimental model for skin inflammation.
DTH reactions were induced in the abdomen skin of 8 week old female Balb/c mice, weighing 20 g each.
The mice were sensitized first by topical application of 100 μl of a 5% Oxazolone (4-Ethoxymethylene-2-phenyl-2-oxazolin-5-one; Sigma) solution in ethanol/acetone (3:1, vol/vol) to a shaved abdomen. The mice were anesthetized with I.P. injection of 0.2 ml/mouse of a stock solution prepared from Ketamine (1 ml)+Xylazine (1 ml)+Saline (8 ml). The anesthesia was done for the shaving of the abdomen and the first sensitization.
After 4 days the mice were challenged for the second time using 1% Oxazolone (4-Ethoxymethylene-2-phenyl-2-oxazolin-5-one; Sigma) solution in ethanol/acetone (3:1, vol/vol). The solution was pipetted onto the shaved abdomen of the mice.
Six days after the first sensitization, the right ear of each mouse was challenged with topical application of 20 μl (10 μl at each surface of the ear) of a 1% Oxazolone solution in olive oil/acetone (3:1, vol/vol).
Treatment was given 30 min after the elicitation by applying 40 μl (20 μl at each surface of the ear) of treatment compounds, as described before, on the challenged ear of each mouse.
After 24 hours, the extent of inflammation was measured using the mouse ear swelling test (caliper) and the percent inhibition induced by the treatment was quantified.
The experiment includes a positive control group which was administered Dexamethasone 2 mg/mouse, one untreated group as a negative control and one naïve group.
Baseline measurements of the ear were conducted before the first sensitization.

[2] = Racemization in various solvents, S-isomer measured by chiral HPLC; assay type: physicochemical
Procedure: A sample of (R)-Amino-phenyl-acetic acid octadec-9-(Z)-enyl ester HCl (Compound 2) was suspended in various solvents (2 mg/ml). The compound was 99.7% enantiomerically pure as determined by chiral HPLC. The presence of the S-isomer (compound 1) was measured after various time points. The amount of racemization in terms of percent (relative to compound 1+compound 2) is detailed in Table 2 below.
The presence of the S-isomer (Compound 1) was measured by chiral HPLC after various time points. The amount in terms of percent (relative to compound 1+compound 2) is detailed in the table below.

pKa of the compound = assay type: physicochemical
[3] = 5 mg/ml, 0.2 mg/mouse topical on challenged ear
[4] = 8 mg/ml, 0.32 mg/mouse topical on challenged ear
[5] = 12.5 mg/ml, 0.5 mg/mouse topical on challenged ear
[6] = 25 mg/ml, 1 mg/mouse topical on challenged ear
[7] = positive control, 50 mg/ml, 2 mg/mouse

Structure (SMILES): CCCCCCCC/C=C\CCCCCCCCOC(=O)C(N)c1ccccc1.Cl (racemic) [Racemic, aminophenylacetic acid octadec-(Z)-9-enyl ester HCl, reference compound]
% Inflamation (Diff/Base line * 100) [1, 3]: 69.43% | % Inhibition [1, 3]: 38.46% | Difference mm [1, 3]: 0.18 mm | % Inflamation (Diff/Base line * 100) [1, 4]: 73.53% | % Inhibition [1, 4]: 39.98% | Difference mm [1, 4]: 0.17 mm | % Inflamation (Diff/Base line * 100) [1, 5]: 43.08% | % Inhibition [1, 5]: 60.14% | Difference mm [1, 5]: 0.11 mm | % Inflamation (Diff/Base line * 100) [1, 6]: 13.68% | % Inhibition [1, 6]: 87.76% | Difference mm [1, 6]: 0.04 mm | inhibition of inflammation [1]: provide inhibition of inflammation

Structure (SMILES): C[C@@H]1C[C@H]2[C@@H]3CCC4=CC(=O)C=C[C@]4(C)[C@@]3(F)[C@@H](O)C[C@]2(C)[C@@]1(O)C(=O)CO [dexamethasone, Dexamethasone, reference compound]
% Inflamation (Diff/Base line * 100) [1, 7]: 22.62% | % Inhibition [1, 7]: 80.42% | Difference mm [1, 7]: 0.06 mm

Percent racemization (relative to compound 1 + compound 2) ([2]; 0.1 N HCl, 2 mg/ml, 0 hours): 0.4% | Percent racemization (relative to compound 1 + compound 2) ([2]; 0.1 N HCl, 2 mg/ml, 1 hour): 0.4% | Percent racemization (relative to compound 1 + compound 2) ([2]; 0.1 N HCl, 2 mg/ml, 2 hours): 0.4% | Percent racemization (relative to compound 1 + compound 2) ([2]; 0.1 N HCl, 2 mg/ml, 3 hours): 0.3% | Percent racemization (relative to compound 1 + compound 2) ([2]; 0.1 N HCl, 2 mg/ml, 4 hours): 0.3% | Percent racemization (relative to compound 1 + compound 2) ([2]; 0.1 N HCl, 2 mg/ml, 21 hours): 0.3% | Percent racemization (relative to compound 1 + compound 2) ([2]; 0.9% NaCl solution, 2 mg/ml, 0 hours): 0.9% | Percent racemization (relative to compound 1 + compound 2) ([2]; 0.9% NaCl solution, 2 mg/ml, 1 hour): 1.2% | Percent racemization (relative to compound 1 + compound 2) ([2]; 0.9% NaCl solution, 2 mg/ml, 2 hours): 2.3% | Percent racemization (relative to compound 1 + compound 2) ([2]; 0.9% NaCl solution, 2 mg/ml, 3 hours): 3.3% | Percent racemization (relative to compound 1 + compound 2) ([2]; 0.9% NaCl solution, 2 mg/ml, 4 hours): 3.0% | Percent racemization (relative to compound 1 + compound 2) ([2]; 0.9% NaCl solution, 2 mg/ml, 21 hours): 6.0% | S-isomer (Compound 1) amount in percent (relative to compound 1+compound 2) ([2]; 1% Acetic acid, pH 2.8, 2 mg/ml, 0 hr): 0.7% | S-isomer (Compound 1) amount in percent (relative to compound 1+compound 2) ([2]; 1% Acetic acid, pH 2.8, 2 mg/ml, 1 hr): 2.0% | S-isomer (Compound 1) amount in percent (relative to compound 1+compound 2) ([2]; 1% Acetic acid, pH 2.8, 2 mg/ml, 2 hr): 3.6% | S-isomer (Compound 1) amount in percent (relative to compound 1+compound 2) ([2]; 1% Acetic acid, pH 2.8, 2 mg/ml, 3 hr): 5.2% | S-isomer (Compound 1) amount in percent (relative to compound 1+compound 2) ([2]; 1% Acetic acid, pH 2.8, 2 mg/ml, 4 hr): 6.6% | S-isomer (Compound 1) amount in percent (relative to compound 1+compound 2) ([2]; Acetate Buffer, pH 3.5, 2 mg/ml, 0 hr): 0.3% | S-isomer (Compound 1) amount in percent (relative to compound 1+compound 2) ([2]; Acetate Buffer, pH 3.5, 2 mg/ml, 1 hr): 3.3% | S-isomer (Compound 1) amount in percent (relative to compound 1+compound 2) ([2]; Acetate Buffer, pH 3.5, 2 mg/ml, 2 hr): 6.2% | S-isomer (Compound 1) amount in percent (relative to compound 1+compound 2) ([2]; Acetate Buffer, pH 3.5, 2 mg/ml, 3 hr): 9.3% | S-isomer (Compound 1) amount in percent (relative to compound 1+compound 2) ([2]; Acetate Buffer, pH 3.5, 2 mg/ml, 4 hr): 12.1% | S-isomer (Compound 1) amount in percent (relative to compound 1+compound 2) ([2]; Acetate Buffer, pH 4.0, 2 mg/ml, 0 hr): 0.2% | S-isomer (Compound 1) amount in percent (relative to compound 1+compound 2) ([2]; Acetate Buffer, pH 4.0, 2 mg/ml, 1 hr): 7.7% | S-isomer (Compound 1) amount in percent (relative to compound 1+compound 2) ([2]; Acetate Buffer, pH 4.0, 2 mg/ml, 2 hr): 15.2% | S-isomer (Compound 1) amount in percent (relative to compound 1+compound 2) ([2]; Acetate Buffer, pH 4.0, 2 mg/ml, 3 hr): 22.1% | S-isomer (Compound 1) amount in percent (relative to compound 1+compound 2) ([2]; Acetate Buffer, pH 4.0, 2 mg/ml, 4 hr): 27.2% | S-isomer (Compound 1) amount in percent (relative to compound 1+compound 2) ([2]; Acetate Buffer, pH 5.0, 2 mg/ml, 0 hr): 0.2% | S-isomer (Compound 1) amount in percent (relative to compound 1+compound 2) ([2]; Acetate Buffer, pH 5.0, 2 mg/ml, 1 hr): 6.3% | S-isomer (Compound 1) amount in percent (relative to compound 1+compound 2) ([2]; Acetate Buffer, pH 5.0, 2 mg/ml, 2 hr): 14.6% | S-isomer (Compound 1) amount in percent (relative to compound 1+compound 2) ([2]; Acetate Buffer, pH 5.0, 2 mg/ml, 3 hr): 19.0% | S-isomer (Compound 1) amount in percent (relative to compound 1+compound 2) ([2]; Acetate Buffer, pH 5.0, 2 mg/ml, 4 hr): 25.3% | S-isomer (Compound 1) amount in percent (relative to compound 1+compound 2) ([2]; Acetate Buffer, pH 5.5, 2 mg/ml, 0 hr): 0.2% | S-isomer (Compound 1) amount in percent (relative to compound 1+compound 2) ([2]; Acetate Buffer, pH 5.5, 2 mg/ml, 1 hr): 4.7% | S-isomer (Compound 1) amount in percent (relative to compound 1+compound 2) ([2]; Acetate Buffer, pH 5.5, 2 mg/ml, 2 hr): 8.2% | S-isomer (Compound 1) amount in percent (relative to compound 1+compound 2) ([2]; Acetate Buffer, pH 5.5, 2 mg/ml, 3 hr): 12.4% | S-isomer (Compound 1) amount in percent (relative to compound 1+compound 2) ([2]; Acetate Buffer, pH 5.5, 2 mg/ml, 4 hr): 16.4% | Percent racemization (relative to compound 1 + compound 2) ([2]; PBS, pH 7.4, 2 mg/ml, 0 hours): 0.4% | Percent racemization (relative to compound 1 + compound 2) ([2]; PBS, pH 7.4, 2 mg/ml, 1 hour): 7.2% | Percent racemization (relative to compound 1 + compound 2) ([2]; PBS, pH 7.4, 2 mg/ml, 2 hours): 12.3% | Percent racemization (relative to compound 1 + compound 2) ([2]; PBS, pH 7.4, 2 mg/ml, 3 hours): 15.0% | Percent racemization (relative to compound 1 + compound 2) ([2]; PBS, pH 7.4, 2 mg/ml, 4 hours): 17.9% | Percent racemization (relative to compound 1 + compound 2) ([2]; PBS, pH 7.4, 2 mg/ml, 21 hours): 47.0% | Percent racemization (relative to compound 1 + compound 2) ([2]; Purified water, 2 mg/ml, 0 hours): 0.4% | Percent racemization (relative to compound 1 + compound 2) ([2]; Purified water, 2 mg/ml, 1 hour): 3.8% | Percent racemization (relative to compound 1 + compound 2) ([2]; Purified water, 2 mg/ml, 2 hours): 7.2% | Percent racemization (relative to compound 1 + compound 2) ([2]; Purified water, 2 mg/ml, 3 hours): 10.3% | Percent racemization (relative to compound 1 + compound 2) ([2]; Purified water, 2 mg/ml, 4 hours): 13.9% | Percent racemization (relative to compound 1 + compound 2) ([2]; Purified water, 2 mg/ml, 21 hours): 38.2% | racemization in various aqueous solvents ([2]; various aqueous solvents): undergoes racemization | pKa (pKa of the compound): 4.2
Structure (SMILES): CCCCCCCC/C=C\CCCCCCCCOC(=O)[C@H](N)c1ccccc1 [Compound 2, (R)-Amino-phenyl-acetic acid octadec-9-(Z)-enyl ester HCl]
% Inflamation (Diff/Base line * 100) [1, 3]: 71.13% | % Inhibition [1, 3]: 39.39% | Difference mm [1, 3]: 0.17 mm | % Inflamation (Diff/Base line * 100) [1, 4]: 41.68% | % Inhibition [1, 4]: 62.12% | Difference mm [1, 4]: 0.11 mm | % Inflamation (Diff/Base line * 100) [1, 5]: 50.31% | % Inhibition [1, 5]: 55.71% | Difference mm [1, 5]: 0.13 mm | % Inflamation (Diff/Base line * 100) [1, 6]: 35.01% | % Inhibition [1, 6]: 68.53% | Difference mm [1, 6]: 0.09 mm | inhibition of inflammation [1]: provide inhibition of inflammation

Structure (SMILES): CCCCCCCC/C=C\CCCCCCCCOC(=O)[C@@H](N)c1ccccc1 [Compound 1, (S)-Amino-phenyl-acetic acid octadec-9-(Z)-enyl ester HCl]
% Inflamation (Diff/Base line * 100) [1, 3]: 87.18% | % Inhibition [1, 3]: 20.75% | Difference mm [1, 3]: 0.23 mm | % Inflamation (Diff/Base line * 100) [1, 4]: 34.76% | % Inhibition [1, 4]: 68.53% | Difference mm [1, 4]: 0.09 mm | % Inflamation (Diff/Base line * 100) [1, 5]: 25.84% | % Inhibition [1, 5]: 77.86% | Difference mm [1, 5]: 0.06 mm | % Inflamation (Diff/Base line * 100) [1, 6]: 17.70% | % Inhibition [1, 6]: 83.68% | Difference mm [1, 6]: 0.05 mm | inhibition of inflammation [1]: provide inhibition of inflammation
